The source of these data is patent publication US9657088B2, “Anti-HSV antibody” (priority 2009, dated 2017).

In assay [1] the test system is HSV-1 F. Briefly: Virus neutralization end-point dilution assay on Vero cells, 100 TCID50. The format is cell-based. Particulars: Table 4, read-out: concentration required for 50% neutralization. The method, then:
(§1) Neutralizing activity of antibodies were determined by a standard end-point dilution assay using Vero cells grown as monolayers in microtiter plates. […] After 72 h incubation at 37° C. the antibody concentration required to prevent the formation of virus-induced CPE to 100% was determined as complete neutralization titer.
(§2) Neutralizing activity of antibodies was determined by end-point dilution assay as described previously (16). Briefly, serial dilutions of antibodies were incubated with 100 TCID50 of HSV-1 or HSV-2 for 1 h at 37° C. in cell culture medium. The antibody virus inoculum was applied to Vero cell monolayers grown in microtiter plates and cytopathic effect (CPE) was scored after 72 h incubation at 37° C. The antibody concentration required for reducing virus-induced CPE by 100% was determined as complete neutralization titer. […] For control purposes virus without antibody and antibody alone was used to induce maximal CPE or no CPE, respectively.

The next assay concerns HSV-2 G. The description is as above. Particulars: 100% reduction of CPE, 72 h. The format is cell-based. How it is done:
as §1, §2

In assay [2] the test system is HSV-1 F. Put plainly: Passive immunization of NOD/SCID mice 24 h before intravaginal HSV-1 challenge. The format is in vivo. The method, then:
Mice were infected intravaginally with 1×10^6 TCID50/20 μl of the neurovirulent HSV-1 strain F. Infected mice with symptoms of weight loss, vulvitis/vaginitis or neurological diseases were killed, and their organs examined for infectious virus by titration on Vero cell monolayers as described previously. Non-infected mice were killed at day 30. Animals per group n=7.
Animals per group n=7 for PBS, n=9 all other groups.
(§3) Anesthetized female nonobese diabetic/severe combined immunodeficient (NOD-SCID) mice (NOD.CB17-Prkdc^scid/J, Charles River Laboratories, Research Models and Services, Sulzfeld, Germany), 6-8 weeks of age, were challenged intravaginally with 20 μl inoculum of 1×10^6 TCID50 HSV-1 F per mouse. Skin glue (Epiglu, Meyer-Haake Medical Innovations, Wehrheim, Germany) was applied onto the vulva to prevent discharge of the virus inoculum. […] Mice were examined daily after viral inoculation for loss of weight, vulvitis/vaginitis (redness, mucopurulent discharge and signs of inflammation) and neurological disease. Mice displaying any of theses symptoms were sacrificed immediately. […] Mice were assessed for infection by determination of virus titers from vaginal irrigations obtained on days 1, 2, 4, 6 and 8 after infection and at the time of death using the endpoint dilution assay on Vero cells. Viral loads in organs (spleen, adrenal gland, lung heart, liver, kidney, spinal cord, and brain) of sacrificed mice were determined after homogenization of organs by titration on Vero cell monolayers as described elsewhere (41). Each test and control group contained 9-10 animals with detectable HSV-1 infection.
Natural killer (NK) cells accumulating at the site of HSV-2 infection in humans (28) are the early source of interferon-γ (45), which plays an essential role for the control of HSV infection (2, 45, 62).

Assay [3] has as its system HSV-1 F. Put plainly: Post-exposure treatment of NOD/SCID mice with established HSV-1 infection. The format is in vivo. How it is done:
Infected animals per group n=7.
Vaginal virus titers of antibody or control treated mice were determined from vaginal irrigations cultured on Vero cell monolayers. Error bars indicate standard deviation.
as §3

Assay [4] has as its system HSV1 strain 342 hv. Put plainly: Intravaginal HSV1 infection of C57BL/6J mice, i.p. antibody. Particulars: i.p. post infection. The format is in vivo. The text has this:
Therefore, C57BL/6J mice were infected by application of the HSV1 strain 342 hv on the intact vaginal mucosa membrane.

Assay [5] concerns truncated HSV-1 glycoprotein B (gB) expressed in COS-1 cells. Format: binding.
Assay [6] relates to HSV-1 wild-type strains and gB mutant viruses. Briefly: Mouse protection experiments with gB mutant viruses. Format: in vivo, C57BL/6 mice. The settings on record: i.p. 24 hours before.
The test system of assay [7] is HSV-1 F. Briefly: Pre- versus post-attachment neutralization assay. Format: cell-based. Particulars: 100 TCID50 HSV-1, 4° C., Vero cells. How it is done:
The highest antibody and polyvalent human IgG titer, respectively, preventing virus induced cytopathic effect (CPE) in ten individual inoculated cell monolayers to 100% and 50% relative to controls were determined after 72 h incubation at 37° C. and being considered as the endpoint. Standard errors of the mean of three independent experiments were <0.1.
Neutralization titers were determined after 72 h as described in the standard neutralization assay above.

The subject of assay [8] is HSV1 strain 342 hv. The settings on record: administration 24 h prior to viral inoculation; cited from earlier work.

“Also recorded” adds a separate entry of the source. Read-outs that look alike come from different tables or passages of the source.

With “mAb 2c: murine monoclonal IgG2a antibody specific for glycoprotein B of HSV1 and HSV2; VH SEQ ID NO: 9, VL SEQ ID NO: 10”, in the assay with HSV-1 F [1], the IC50 turned out to be 4.3 nM. In addition, the “Concentration for complete neutralization of 100 TCID50” value in the assay with HSV-2 G stood at 31 nM. In addition, the “Median survival time prolonged compared to PBS control” value with HSV-1 F [2] (5 mg/kg i.v., 24 h prior to challenge) amounted to 2.6 fold. Further, the “protection against lethal encephalitis” value in the assay on HSV-1 F [2] (15 mg/kg i.v., 24 h prior to infection) is listed as “fully protected against lethal encephalitis; also recorded: full protection”. Also, in the assay with HSV-1 F [2] (15 mg/kg, detection limit), the “Viral titres in organs of protected mice” value was < 1×10^2 TCID50. Further, in the assay with HSV-1 F [2] (low antibody doses (2.5 mg/kg, 5 mg/kg)), the “protection against lethal infection” value is on record as “not fully protected against lethal infection”. In the assay with HSV-1 F [2] (single i.v. dose of 5 mg/kg, 24 h prior to infection), the survival entry was “prolongs the survival”. Besides, the “protection from lethal outcome of established infection” value in the assay on HSV-1 F [3] (15 mg/kg i.v. at 24 h, 40 h and 56 h post infection) was “completely protected from the lethal outcome of infection; also recorded: completely prevented lethal outcome of infection”. Also, the “virions in sensory neurons and respective organs” value in the assay on HSV-1 F [3] (one month after infection) is recorded as “no virions were detected”. For the same substance, in the assay on HSV1 strain 342 hv [4] (CD4+ and CD8+ depleted animals), the “inhibition of viral replication and prevention of lethal disease” value is “capable to inhibit viral replication as well as to prevent a generalized, lethal progressing disease with a high efficiency”. For the same substance, in the assay on HSV1 strain 342 hv [4] (immunocompetent and CD4+ T cell depleted animals), the “inhibition of viral propagation in vaginal mucosa and inflammatory lesions” value was “capable of inhibiting the viral propagation in the vaginal mucosa membrane and the formation of inflammatory lesions”. In addition, the Reactivity result is “−” in assay [5] (gB(1-470)); “+” in assay [5] (gB(1-487)); “+” in assay [5] (gB(1-503)); “+” in [5] (gB(1-505)); “+” in [5] (gB(1-630)); “+” in assay [5] (gB(1-720)). The Reactivity entry in assay [5] (gB(1-904) (full length gB)) is listed as “+”; in assay [5] (pSVL, expression vector, negative control), “−”. Moreover, the “protective effect in vivo” value in assay [6] (mice inoculated with mutants R126 (Y303N), R1375 (R304Q), B4.1 (E305K)) was “ineffective”; in [6] (mice inoculated with mutants R1435 (H308Y) or R233 (R328H) or wild-type viruses) it was “effective”. Also, in the assay on HSV-1 F [7], the “pre-attachment versus post-attachment neutralization” value is on record as “Equal neutralization efficacy”. The protection against infection result with HSV1 strain 342 hv [8] is given as “efficiently protected the animals against infection”.
